Reference: patent US6875759B1, “Substituted guanidines and the use thereof” (Kadmus Pharmaceuticals, priority 1999, dated 2005)
Like-named read-outs stand apart in the source and are kept apart here.

Experiments:
[1] = system: pancreas cancer cell line HS766T; test: In vitro cytotoxicity, MTS assay, pancreas cancer cells; type: cell-based, human; conditions: Homo sapiens, 168 h, 7 days exposure, dose causing death to 50% of cells, read-out: Cell Survival ED 50 Pancreas
Description: (§1) In these experiments, cells were seeded at 400 cells per well 24 hours prior to addition of the test compound. Cells were grown at 37° C. in a humidified atmosphere of 95% air, 5% CO2 for 7 days with daily media changes. Cytotoxicity was assessed using the CellTiter 96 Aqueous Proliferation Assay (Promega, Madison, Wis.).

[2] = system: hormone-independent prostate cancer cell line DU145; test: In vitro cytotoxicity, MTS (CellTiter 96 Aqueous Proliferation Assay), prostate cancer cells; type: cell-based, human; conditions: 7 days exposure, MTS, dose causing death to 50% of cells, read-out: Cell Survival ED 50 Prostate
Description: FIG. 1 is a graph which compares the effects of the compound of Example 8 on normal human endothelial cells (AH-9) and human prostate cancer cells (DU145). Cells were exposed to the compound for seven days at the concentrations indicated. Cytotoxicity was assessed using the MTS assay.
as §1
In a separate experiment (FIG. 1), normal human endothelial cells (AH-9) and human prostate cancer cells (DU145) were exposed to increasing concentrations of the compound of Example 8 for seven days.

[3] = system: breast cancer cell line HS578T; test: In vitro cytotoxicity, MTS assay, breast cancer cells; type: cell-based, human; conditions: 7 days exposure, dose causing death to 50% of cells, read-out: Cell Survival ED 50 Breast
Description: as §1

[4] = Mouse formalin test pain model, late phase; type: in vivo
Description: The formalin test was conducted using standard procedures (Hunskaar et al., J. Neurosci. Meth. 14:69-76 (1985). Mice (male CF-1, 20-25 g) were placed in Plexiglass jars for at least 1 hr to accommodate to the environment
The animals received either test drug at 5-50 mg/kg p.o. or the appropriate volume of vehicle (normal saline). Thirty minutes after p.o. dosing mice were injected with formalin (20 μl of 2.5% formaldehyde solution in saline) into the dorsal surface of the right hind paw.
All experiments were done in a blinded manner. The late phase of the formalin response was measured as licking/biting from 10-50 minutes after formalin injection. Differences between groups were analyzed by one-way analysis of variance (ANOVA), A P value ≦0.05 was considered significant. Reduction in the time spent licking/biting in the late phase of the formalin response is considered an indication of a reduction in chronic pain.

SMILES | EC50 [1] [µM] | EC50 ([2]; Homo sapiens, DU-145, 168 h) [µM] | EC50 ([3]; Homo sapiens, Hs-578T, 168 h) [µM] | other results
Cc1ccc(NC(=N)N(CCc2c[nH]c3ccccc23)c2ccc(C)cc2)cc1 [Example 9, 1-[(N,N′-di-p-tolyl)guanidinyl]-2-(3-indolyl)ethane] | 0.5 | 5.1 | 4.2 | –
COc1cccc2c1C(=O)c1c(O)c3c(c(O)c1C2=O)C[C@@](O)(C(=O)CO)C[C@@H]3O[C@H]1C[C@H](N)[C@H](O)[C@H](C)O1 [Doxorubicin, doxorubicin, reference compound] | 0.3 | 7 | 2 | –
Cc1ccc(NC(=N)N(CCCCN(C(=N)Nc2ccc(C)cc2)c2ccc(C)cc2)c2ccc(C)cc2)cc1 [Example 5, 1,4-Di-[(N,N′-di-p-tolyl)guanidinyl]butane] | – | 0.7 | 0.3 | –
C[C@]12CC[C@@H]3c4ccc(OC(=O)N(CCCl)CCCl)cc4CC[C@H]3[C@@H]1CC[C@@H]2O [Estramustine, reference compound] | – | 11 | – | –
Cc1ccc(NC(=N)N(CCN(C(=N)Nc2ccc(C)cc2)c2ccc(C)cc2)c2ccc(C)cc2)cc1 [Example 21, 1,2-Di-[(N,N′-di-p-tolyl)guanidinyl]ethane] | – | – | – | late phase pain versus control vehicle (post-hoc Newman-Kuels test) ([4]; 30 mg/kg orally): significant at P<0.05; effect on general behavior of the animals ([4]; at the doses effective in the formalin test, p.o.): did not affect the general behavior; time spent licking, late phase of formalin response (in words) ([4]; oral administration, 5-50 mg/kg, male CF-1 mice): dose-dependent reduction in the time spent licking
Cc1ccc(N=C(Nc2ccc(C)cc2)N2CCOCCOCCN(C(=Nc3ccc(C)cc3)Nc3ccc(C)cc3)CCOCCOCC2)cc1 [Example 16, 7,16-Di-[(N,N′-Di-p-tolyl)amidino]-1,4,10,13-tetraoxa-7,16-diazacyclooctadecane] | – | 1 | 0.6 | –
COc1cc([C@@H]2c3cc4c(cc3[C@@H](O[C@@H]3O[C@@H]5CO[C@@H](C)O[C@H]5[C@H](O)[C@H]3O)[C@H]3COC(=O)[C@H]23)OCO4)cc(OC)c1O [Etoposide, etoposide, reference compound] | 2 | 0.6 | 0.4 | –
CC[C@]1(O)C[C@@H]2CN(CCc3c([nH]c4ccccc34)[C@@](C(=O)OC)(c3cc4c(cc3OC)N(C)[C@H]3[C@@](O)(C(=O)OC)[C@H](OC(C)=O)[C@]5(CC)C=CCN6CC[C@]43[C@@H]65)C2)C1 [Vinblastine, vinblastine, reference compound] | 0.2 | 4 | 1.2 | –
Cc1ccc(NC(=NCCCOCCCCOCCCN=C(Nc2ccc(C)cc2)Nc2ccc(C)cc2)Nc2ccc(C)cc2)cc1 [Example 15] | – | – | – | EC50 [2]: 2.5 µM; EC50 [3]: 0.9 µM
Cc1ccc(N(c2ccc(C)cc2)N2CCC(C#N)(c3ccccc3)CC2)cc1 [Example 14, 4-Cyano-1-[(N,N′-di-p-tolyl)amino]-4-phenylpiperidine] | – | 10.8 | 4.6 | –
Cc1ccc(NC(=N)N(CCCCN)c2ccc(C)cc2)cc1 [Example 4, 1-Amino-4-[(N,N′-di-p-tolyl)guanidinyl]butane] | 0.2 | 2.5 | 1.7 | –
